Results as given in ChEMBL document CHEMBL4732251, “Synthesis and evaluation of the epithelial-to- mesenchymal inhibitory activity of indazole-derived imidazoles as dual ALK5/p38α MAP inhibitors” (Eur J Med Chem, 2021).
The source made the active and inactive calls. The rule behind the calls is not given here.

How the values were obtained:
U-87MG ATCC [1] = assay: Inhibition of TGF-beta-induced morphological changes in human U-87MG cells at 0.1 to 1 uM after 48 hrs; type: functional, cell-based; conditions: dose 0.1-1 µM
U-87MG ATCC [2] = assay: Reversal of TGF-beta-induced epithelial-mesenchymal transition in human U-87MG cells assessed as reduction in vimentin protein level at 0.1 to 0.5 uM after 48 hrs by Western blotting analysis; type: functional, cell-based; conditions: dose 0.1-0.5 µM
U-87 MG [3] = assay: Inhibition of epithelial-mesenchymal transition in human U-87MG cells assessed as reduction in TGF-beta stimulated Slug protein expression after 48 hrs by Western blot anlaysis; type: functional, cell-based; conditions: U-87MG ATCC, dose 0.5-1 µM
U-87MG ATCC [4] = assay: Reversal of TGF-beta-induced epithelial-mesenchymal transition in human U-87MG cells assessed as reduction in N-cadherin protein level at 0.1 to 0.5 uM after 48 hrs by Western blotting analysis; type: functional, cell-based; conditions: dose 0.1-0.5 µM
[5] = molecular target: Mitogen-activated protein kinase 14 (Homo sapiens, UniProt Q16539); assay: Inhibition of recombinant human p38alpha expressed in Escherichia coli assessed as incoporation of [33]Pi after 60 mins in presence of [gamma-33P]-ATP by microplate scintillation counter method
TGF-beta receptor type-1 = molecular target: T1, TGF-beta receptor type-1 (Homo sapiens, UniProt P36897); assay: Inhibition of recombinant human GST-fused ALK5 expressed in baculovirus infected Sf9 cells assessed as incoporation of [33]Pi after 60 mins in presence of [gamma-33P]-ATP by microplate scintillation counter method
T1 sequence (P36897 whole entry): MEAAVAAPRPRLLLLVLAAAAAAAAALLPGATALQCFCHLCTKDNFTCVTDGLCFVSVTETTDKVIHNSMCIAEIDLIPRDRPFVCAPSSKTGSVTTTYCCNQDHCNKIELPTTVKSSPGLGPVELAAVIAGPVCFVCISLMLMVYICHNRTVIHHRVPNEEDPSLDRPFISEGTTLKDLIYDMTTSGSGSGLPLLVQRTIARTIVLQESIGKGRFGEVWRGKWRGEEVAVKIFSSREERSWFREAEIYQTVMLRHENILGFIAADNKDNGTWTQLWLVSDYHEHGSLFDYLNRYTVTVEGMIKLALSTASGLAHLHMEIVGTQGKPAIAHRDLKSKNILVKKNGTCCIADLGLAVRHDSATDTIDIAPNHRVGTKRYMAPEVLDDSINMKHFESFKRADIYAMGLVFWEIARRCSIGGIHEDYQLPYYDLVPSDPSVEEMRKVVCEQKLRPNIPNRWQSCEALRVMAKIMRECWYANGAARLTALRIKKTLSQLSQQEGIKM

[6] = molecular target: T2, TGF-beta receptor type-1 (Homo sapiens) (UniProt P36897); assay: Potency index, ratio of LY-2157299 IC50 to test compound IC50 for recombinant human GST-fused ALK5 expressed in baculovirus infected Sf9 cells assessed as incoporation of [33]Pi after 60 mins in presence of [gamma-33P]-ATP by microplate scintillation counter method
T2 sequence (whole entry): T1 sequence (P36897 whole entry)

[7] = molecular target: T2, TGF-beta receptor type-1 (Homo sapiens); assay: Potency index, ratio of EW-7197 IC50 to test compound IC50 for recombinant human GST-fused ALK5 expressed in baculovirus infected Sf9 cells assessed as incoporation of [33]Pi after 60 mins in presence of [gamma-33P]-ATP by microplate scintillation counter method
U-87MG ATCC [8] = assay: Inhibition of TGF-beta-induced cell invasion in human U-87MG cells at 1 uM incubated for 24 hrs by crystal violet staining based matrigel transwell assay; type: functional
U-87 MG [9] = assay: Inhibition of TGF-beta-induced cell migration in human U-87MG cells at 1 uM incubated for 36 hrs by bright field microscopy based wound healing assay; type: functional; conditions: U-87MG ATCC
U-87 MG [10] = assay: Inhibition of epithelial-mesenchymal transition in human U-87MG cells assessed as reduction in TGF-beta stimulated nuclear translocation of slug at 1 uM pretreated with compound followed by TGFbeta stimulation and measured after 48 hrs by immunofluorescence assay; type: functional, cell-based; conditions: U-87MG ATCC
U-87MG ATCC [11] = assay: Reversal of TGF-beta-induced epithelial-mesenchymal transition in human U-87MG cells assessed as downregulation of N-cadherin expression at 1 uM after 48 hrs by immunofluorescence assay; type: functional, cell-based
U-87MG ATCC [12] = assay: Reversal of TGF-beta-induced epithelial-mesenchymal transition in human U-87MG cells assessed as reduction in vimentin mRNA level at 1 uM after 48 hrs by RT-PCR analysis; type: functional, cell-based
U-87MG ATCC [13] = assay: Reversal of TGF-beta-induced epithelial-mesenchymal transition in human U-87MG cells assessed as reduction in N-cadherin mRNA level at 1 uM after 48 hrs by RT-PCR analysis; type: functional, cell-based

Mitogen-activated protein kinase 14, sequence (Q16539 whole entry, the tested form may be a part): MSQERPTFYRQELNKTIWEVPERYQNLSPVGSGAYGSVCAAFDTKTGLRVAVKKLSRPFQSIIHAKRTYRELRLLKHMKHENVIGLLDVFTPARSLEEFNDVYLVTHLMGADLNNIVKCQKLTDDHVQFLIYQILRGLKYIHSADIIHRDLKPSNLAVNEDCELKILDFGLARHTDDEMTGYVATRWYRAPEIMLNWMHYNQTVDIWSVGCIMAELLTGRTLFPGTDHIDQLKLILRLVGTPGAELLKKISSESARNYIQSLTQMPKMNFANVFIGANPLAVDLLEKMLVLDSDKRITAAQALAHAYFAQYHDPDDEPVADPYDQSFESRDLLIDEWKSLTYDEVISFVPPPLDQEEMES

Compound	IC50 [5] [nM]	IC50 (TGF-beta receptor type-1) [nM]	Ratio IC50 [6]	other results
Cc1cccc(-c2nn3c(c2-c2ccnc4ccc(C(N)=O)cc24)CCC3)n1	–	–	–	inhibition (U-87MG ATCC [1]): Active; Activity (U-87MG ATCC [2]): Active; inhibition (U-87 MG [3]): Dose-dependent effect; Activity (U-87MG ATCC [4]): Active
Cc1ccc(NCc2nc(-c3ccc4c(cnn4C)c3)c(-c3cccc(C)n3)[nH]2)cc1	565	34	3.8	–
Cc1cccc(-c2[nH]c(CNc3ccccc3)nc2-c2ccc3[nH]ncc3c2)n1	13	4	32.3	Ratio IC50 [7]: 3.5
Cc1cccc(-c2[nH]c(CNc3cccc(F)c3)nc2-c2ccc3[nH]ncc3c2)n1	4	4	–	inhibition (U-87MG ATCC [8]): Active; inhibition (U-87 MG [9]): Active; inhibition (U-87MG ATCC [1]): Active; inhibition (U-87 MG [10]): Active; Activity (U-87MG ATCC [11]): Active; Activity (U-87MG ATCC [12]): Active; Activity (U-87MG ATCC [2]): Active; Activity (U-87MG ATCC [13]): Active; inhibition (U-87 MG [3]): Dose-dependent effect; Activity (U-87MG ATCC [4]): Active
Cc1cccc(-c2[nH]c(CNc3ccccc3)nc2-c2ccc3c(cnn3C)c2)n1	66	14	3.8	–
Cc1cccc(-c2[nH]c(CNc3ccccc3F)nc2-c2ccc3c(cnn3C)c2)n1	95	13	–	–
Cc1cccc(-c2[nH]c(CNc3cccc(F)c3)nc2-c2ccc3c(cnn3C)c2)n1	26	11	3.8	–
Cc1cccc(-c2[nH]c(CNc3ccccc3F)nc2-c2ccc3[nH]ncc3c2)n1	20	5	–	–
Cc1cccc(-c2[nH]c(CNc3ccccc3C)nc2-c2ccc3c(cnn3C)c2)n1	71	24	3.8	–
Cc1cccc(NCc2nc(-c3ccc4c(cnn4C)c3)c(-c3cccc(C)n3)[nH]2)c1	23	10	–	–
Cc1cccc(-c2[nH]c(CNc3ccc(F)cc3)nc2-c2ccc3c(cnn3C)c2)n1	112	16	3.8	–
Cc1cccc(-c2[nH]c(CNc3ccccc3C)nc2-c2ccc3[nH]ncc3c2)n1	23	5	–	–
Cc1ccc(NCc2nc(-c3ccc4[nH]ncc4c3)c(-c3cccc(C)n3)[nH]2)cc1	329	9	–	–
Cc1cccc(NCc2nc(-c3ccc4[nH]ncc4c3)c(-c3cccc(C)n3)[nH]2)c1	32	8	3.8	–
Cc1cccc(-c2[nH]c(CNc3ccc(F)cc3)nc2-c2ccc3[nH]ncc3c2)n1	52	6	3.8	–
